In patent publication EP4467141A1, “PYRAZOLO-QUINOLINES AS SELECTIVE INHIBITORS OF GENOTOXIC STRESS-INDUCED IKK/NF- KB PATHWAYS FOR CANCER THERAPY” (Max-Delbrück-Centrum für Molekulare Medizin in der …, priority 2023, dated 2024):

How the values were obtained:
Test in all cases: Kinase panel study
Assay type in all cases: biochemical
Settings in all cases: read-out: Percentage of inhibition; for inhibition at 1 µM: 1000nM; for inhibition at 10 µM: 10000nM
CSNK1D (CK1 delta) = biological target: T1, CSNK1D (CK1 delta) (Homo sapiens, UniProt P48730)
T1 construct: purchased Thermo Fisher Scientific
T1 sequence (P48730 whole entry): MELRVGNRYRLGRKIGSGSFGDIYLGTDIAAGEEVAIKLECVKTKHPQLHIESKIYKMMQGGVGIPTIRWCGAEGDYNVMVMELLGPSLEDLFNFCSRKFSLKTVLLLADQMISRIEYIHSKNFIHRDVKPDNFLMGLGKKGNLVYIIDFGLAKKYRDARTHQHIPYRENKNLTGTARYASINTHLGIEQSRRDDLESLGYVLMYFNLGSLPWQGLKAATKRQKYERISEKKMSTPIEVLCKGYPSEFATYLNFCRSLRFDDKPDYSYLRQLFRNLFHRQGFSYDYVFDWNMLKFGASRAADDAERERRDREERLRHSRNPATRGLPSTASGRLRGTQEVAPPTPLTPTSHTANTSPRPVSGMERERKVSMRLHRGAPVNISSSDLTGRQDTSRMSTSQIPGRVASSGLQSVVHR
Outline: (§1)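 Compounds were tested in vitro against the kinase panel by a service lab. Assays followed standard ZLyte or Adapta protocols. Activity was recorded as % inhibition at 10 µM or 1 µM, with IC50 values where determined.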

EPHA8 = biological target: T2, EPHA8 (Homo sapiens, UniProt P29322)
T2 construct: purchased Thermo Fisher Scientific
T2 sequence (P29322 28-1005): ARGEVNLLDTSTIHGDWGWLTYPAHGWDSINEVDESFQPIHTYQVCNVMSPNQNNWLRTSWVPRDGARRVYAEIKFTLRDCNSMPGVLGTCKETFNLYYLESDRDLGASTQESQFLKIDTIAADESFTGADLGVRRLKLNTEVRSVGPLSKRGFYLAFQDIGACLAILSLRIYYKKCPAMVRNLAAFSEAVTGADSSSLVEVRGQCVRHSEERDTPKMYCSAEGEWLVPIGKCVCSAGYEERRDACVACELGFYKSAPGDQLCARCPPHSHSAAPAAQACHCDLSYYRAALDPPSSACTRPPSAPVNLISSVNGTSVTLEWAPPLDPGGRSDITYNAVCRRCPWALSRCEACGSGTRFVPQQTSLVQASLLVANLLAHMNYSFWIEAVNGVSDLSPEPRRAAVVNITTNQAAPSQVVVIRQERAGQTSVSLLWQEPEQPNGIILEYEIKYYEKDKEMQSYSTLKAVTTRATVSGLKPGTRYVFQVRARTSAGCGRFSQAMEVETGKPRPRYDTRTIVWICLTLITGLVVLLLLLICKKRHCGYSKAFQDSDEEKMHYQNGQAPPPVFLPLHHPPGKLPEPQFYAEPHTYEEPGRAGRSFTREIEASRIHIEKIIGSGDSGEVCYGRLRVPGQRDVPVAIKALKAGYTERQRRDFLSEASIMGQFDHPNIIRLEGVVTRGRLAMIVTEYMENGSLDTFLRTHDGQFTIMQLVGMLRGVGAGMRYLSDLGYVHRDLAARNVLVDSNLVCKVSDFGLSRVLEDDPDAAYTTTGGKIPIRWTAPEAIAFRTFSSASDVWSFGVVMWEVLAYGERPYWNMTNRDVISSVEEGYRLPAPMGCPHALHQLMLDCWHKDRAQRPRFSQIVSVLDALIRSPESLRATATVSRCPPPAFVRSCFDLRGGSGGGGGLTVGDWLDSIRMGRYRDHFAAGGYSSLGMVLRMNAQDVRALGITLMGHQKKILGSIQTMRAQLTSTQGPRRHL
Outline: as §1

KSR2 = biological target: T3, KSR2 (Homo sapiens, UniProt Q6VAB6)
T3 construct: purchased Thermo Fisher Scientific
T3 sequence (Q6VAB6 1-950): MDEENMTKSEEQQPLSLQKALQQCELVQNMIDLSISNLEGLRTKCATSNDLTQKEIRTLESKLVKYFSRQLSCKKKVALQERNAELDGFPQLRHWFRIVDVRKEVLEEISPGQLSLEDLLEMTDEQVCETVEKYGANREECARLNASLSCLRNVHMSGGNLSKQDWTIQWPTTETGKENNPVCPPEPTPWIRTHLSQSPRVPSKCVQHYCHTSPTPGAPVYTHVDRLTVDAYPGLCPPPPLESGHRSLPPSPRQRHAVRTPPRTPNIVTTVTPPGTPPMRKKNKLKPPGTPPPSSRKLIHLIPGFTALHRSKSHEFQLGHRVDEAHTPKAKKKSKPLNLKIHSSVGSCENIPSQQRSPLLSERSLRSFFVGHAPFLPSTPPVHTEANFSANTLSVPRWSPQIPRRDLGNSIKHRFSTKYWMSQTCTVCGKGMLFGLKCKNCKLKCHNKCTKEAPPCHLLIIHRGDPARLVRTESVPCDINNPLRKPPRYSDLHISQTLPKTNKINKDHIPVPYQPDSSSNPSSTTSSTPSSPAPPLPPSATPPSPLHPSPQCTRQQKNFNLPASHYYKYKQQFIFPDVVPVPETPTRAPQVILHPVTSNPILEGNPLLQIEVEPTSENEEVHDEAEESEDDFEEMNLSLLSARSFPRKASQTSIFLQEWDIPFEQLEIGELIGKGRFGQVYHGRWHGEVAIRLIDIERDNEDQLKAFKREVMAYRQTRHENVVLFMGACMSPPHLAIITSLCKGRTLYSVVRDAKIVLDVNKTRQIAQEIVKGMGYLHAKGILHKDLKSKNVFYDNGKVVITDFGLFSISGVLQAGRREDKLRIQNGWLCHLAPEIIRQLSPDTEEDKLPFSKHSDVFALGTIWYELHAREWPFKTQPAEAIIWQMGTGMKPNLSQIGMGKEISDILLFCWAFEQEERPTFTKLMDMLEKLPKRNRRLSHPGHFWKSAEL
Outline: as §1

MAPK1 (ERK2) = biological target: T4, MAPK1 (ERK2) (Homo sapiens, UniProt P28482)
T4 construct: purchased Thermo Fisher Scientific
T4 sequence (P28482 whole entry): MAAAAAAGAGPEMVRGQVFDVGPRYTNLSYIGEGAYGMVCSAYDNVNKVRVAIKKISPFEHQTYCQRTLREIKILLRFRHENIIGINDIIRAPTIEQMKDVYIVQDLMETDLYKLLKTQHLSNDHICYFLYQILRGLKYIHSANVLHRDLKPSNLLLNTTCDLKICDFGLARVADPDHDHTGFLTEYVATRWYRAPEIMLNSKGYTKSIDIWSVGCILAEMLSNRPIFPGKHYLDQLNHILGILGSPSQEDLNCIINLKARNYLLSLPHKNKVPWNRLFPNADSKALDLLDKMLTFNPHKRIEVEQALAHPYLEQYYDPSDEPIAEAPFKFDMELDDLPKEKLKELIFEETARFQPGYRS
Outline: as §1

[1] = biological target: T5, PIK3CA E545K/PIK3R1 (p11 0 alpha E545K/p85 alpha) (Homo sapiens, UniProt P42336, E545K)
T5 construct: purchased Thermo Fisher Scientific
T5 sequence (P42336 whole entry E545K): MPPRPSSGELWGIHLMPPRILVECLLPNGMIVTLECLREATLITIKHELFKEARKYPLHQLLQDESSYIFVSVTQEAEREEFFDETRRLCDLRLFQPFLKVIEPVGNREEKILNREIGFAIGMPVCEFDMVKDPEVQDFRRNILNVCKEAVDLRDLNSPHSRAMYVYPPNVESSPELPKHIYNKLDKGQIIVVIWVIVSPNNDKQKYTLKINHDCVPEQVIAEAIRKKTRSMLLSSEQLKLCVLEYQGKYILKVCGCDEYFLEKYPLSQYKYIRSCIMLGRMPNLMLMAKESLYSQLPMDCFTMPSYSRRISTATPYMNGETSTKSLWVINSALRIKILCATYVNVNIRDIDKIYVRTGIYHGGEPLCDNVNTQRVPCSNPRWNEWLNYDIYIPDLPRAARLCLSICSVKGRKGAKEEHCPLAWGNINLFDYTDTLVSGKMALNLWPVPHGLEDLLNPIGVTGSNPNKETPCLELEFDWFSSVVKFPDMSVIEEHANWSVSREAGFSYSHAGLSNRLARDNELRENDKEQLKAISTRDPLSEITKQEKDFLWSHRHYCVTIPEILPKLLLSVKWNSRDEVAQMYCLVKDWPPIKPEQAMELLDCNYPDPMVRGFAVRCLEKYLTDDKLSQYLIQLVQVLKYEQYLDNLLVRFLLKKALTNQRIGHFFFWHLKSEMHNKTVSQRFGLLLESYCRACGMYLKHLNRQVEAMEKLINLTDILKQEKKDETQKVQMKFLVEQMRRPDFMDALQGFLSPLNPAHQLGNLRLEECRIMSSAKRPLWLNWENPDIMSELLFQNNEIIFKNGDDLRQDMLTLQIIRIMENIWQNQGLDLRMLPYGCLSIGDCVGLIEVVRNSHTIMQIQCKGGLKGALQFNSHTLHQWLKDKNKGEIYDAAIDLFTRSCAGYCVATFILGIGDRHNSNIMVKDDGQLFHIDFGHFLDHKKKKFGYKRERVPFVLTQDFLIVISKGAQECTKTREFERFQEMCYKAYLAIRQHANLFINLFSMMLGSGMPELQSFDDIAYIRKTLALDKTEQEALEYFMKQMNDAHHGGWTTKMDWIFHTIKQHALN
T5 sequence (P27986 whole entry partner): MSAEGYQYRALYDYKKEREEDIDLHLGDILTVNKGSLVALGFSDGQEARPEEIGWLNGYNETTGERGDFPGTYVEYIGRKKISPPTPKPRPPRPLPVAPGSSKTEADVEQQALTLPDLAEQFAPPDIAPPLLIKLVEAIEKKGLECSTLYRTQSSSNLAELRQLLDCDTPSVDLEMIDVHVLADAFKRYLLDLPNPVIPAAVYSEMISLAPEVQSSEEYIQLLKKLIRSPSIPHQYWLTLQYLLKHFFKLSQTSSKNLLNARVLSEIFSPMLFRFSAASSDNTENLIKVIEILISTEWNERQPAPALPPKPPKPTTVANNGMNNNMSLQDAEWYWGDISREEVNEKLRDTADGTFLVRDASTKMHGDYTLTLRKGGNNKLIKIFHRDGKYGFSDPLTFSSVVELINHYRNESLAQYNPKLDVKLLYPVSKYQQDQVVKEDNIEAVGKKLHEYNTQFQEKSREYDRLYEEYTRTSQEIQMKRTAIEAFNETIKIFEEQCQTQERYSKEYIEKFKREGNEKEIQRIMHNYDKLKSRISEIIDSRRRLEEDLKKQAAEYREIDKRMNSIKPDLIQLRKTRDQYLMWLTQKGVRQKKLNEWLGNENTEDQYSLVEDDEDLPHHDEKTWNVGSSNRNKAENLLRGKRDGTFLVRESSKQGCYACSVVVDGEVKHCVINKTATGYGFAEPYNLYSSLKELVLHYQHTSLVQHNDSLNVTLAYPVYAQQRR
Outline: as §1

Row | SMILES | inhibition at 1 µM (CSNK1D (CK1 delta)) [%] | inhibition at 10 µM (CSNK1D (CK1 delta)) [%] | inhibition at 1 µM (EPHA8) [%] | inhibition at 10 µM (EPHA8) [%] | inhibition at 1 µM (KSR2) [%] | inhibition at 10 µM (KSR2) [%] | inhibition at 1 µM (MAPK1 (ERK2)) [%] | inhibition at 10 µM (MAPK1 (ERK2)) [%] | inhibition at 1 µM [1] [%] | inhibition at 10 µM [1] [%]
1 | COc1ccc2c(c1OC)c(=O)n1c3ccc(O)cc3c3ccnc2c31 [MW01, 5-Hydroxy-10,11-dimethoxy-9H-benzo[c]indolo[3,2,1-ij][1,5]naphthyridin-9-one] | 13 | 39 | 4 | 21 | 5 | 8 | 4 | 9 | 91 | 97
2 | COc1ccc2cc3c(N)nn(C(=O)c4cccc(N(C)C)c4)c3nc2c1 [MW05, (3-Amino-7-methoxypyrazolo[3,4-b]quinolin-1-yl)-[3-(dimethylamino)phenyl]methanone] | -1 | -1 | -1 | -9 | 7 | -2 | 5 | 7 | 15 | 61
